Laboratory results: patent US7902361B2, “Pyrimidin-4-yl-3, 4-thione compounds and their use in therapy” (Cyclacel Limited, priority 2003, dated 2011)
Read-outs that look alike come from different tables or passages of the source.

Legend:
CDK4/cyclin D1 = CDK4/cyclin D1 (Homo sapiens, UniProt P11802); test: Kinase assay CDK4/cyclin D1; assay type: biochemical; settings: Ki calculated (Cheng-Prusoff) from experimentally determined IC50 and Km,ATP; read-out: Kinase Inhibition Ki CDK4 - cyclin D1
Method in brief: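 Radiometric filter assays used recombinant kinases or complexes (2-4 μg) with appropriate polypeptide substrates in pH 7.4 β-glycerophosphate/MOPS buffer. Reactions were started with 15 mM MgCl2 and 100 μM ATP containing [γ-32P]-ATP and run at 30° C. Phosphate incorporated into substrate was counted by scintillation after washing.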

PEPCK gene expression = PEPCK gene expression assay - qPCR in HEPG2 cells; assay type: cell-based; settings: Homo sapiens, HepG2, HEPG2, read-out: PEPCK gene expression, % of maximum stimulation
Protocol: PEPCK gene expression was studied in HEPG2 (hepatocarcinoma) cells, seeded in 6-well plate at […] per well. The cells were serum-starved for 20 hours before treatment with dexamethasone/cAMP (stimulator of PEPCK gene expression) in the presence or absence of insulin or GSK3 inhibitor example compounds. After 3 hours treatment the cells were harvested, lysed and RNA extracted using mini RNeasy spin columns (Quiagen). The primer set COD2063/COD2064 (350 bp) was used for the PEPCK gene. The one step RT-PCR was carried out using the Lightcycler-RNA Master SYBR Green 1 Kit. The qPCR analysis calculates the number of the PCR cycles required for the PCR product amplification to reach logarithmic phase. QPCR for a housekeeping gene—28S—was used for normalisation. PEPCK is a key enzyme in gluconeogenesis in the liver and it is known to be negatively regulated by insulin via inhibition of GSK3. The effect of example compounds on PEPCK gene expression was studied in HEPG2 cells treated with dexamethasone/cAMP (a positive regulator PEPCK gene expression) in the presence or absence of insulin or GSK3 inhibitors. Example compound inhibitors of GSK3 were efficient in the abolishment of dexamethasone/cAMP induced stimulation of PEPCK gene expression in HEPG2 cells.

Chain of CDK4/cyclin D1 (P11802 whole entry, species assumed): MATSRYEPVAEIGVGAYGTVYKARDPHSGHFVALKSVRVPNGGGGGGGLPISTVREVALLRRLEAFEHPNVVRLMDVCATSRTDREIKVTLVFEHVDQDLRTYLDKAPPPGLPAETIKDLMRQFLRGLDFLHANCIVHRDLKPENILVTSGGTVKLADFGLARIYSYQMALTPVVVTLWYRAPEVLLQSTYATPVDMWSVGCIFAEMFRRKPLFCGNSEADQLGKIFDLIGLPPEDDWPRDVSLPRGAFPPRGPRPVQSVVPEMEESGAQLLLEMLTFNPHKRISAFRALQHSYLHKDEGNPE
Chain of CDK4/cyclin D1 (P24385 whole entry partner, species assumed): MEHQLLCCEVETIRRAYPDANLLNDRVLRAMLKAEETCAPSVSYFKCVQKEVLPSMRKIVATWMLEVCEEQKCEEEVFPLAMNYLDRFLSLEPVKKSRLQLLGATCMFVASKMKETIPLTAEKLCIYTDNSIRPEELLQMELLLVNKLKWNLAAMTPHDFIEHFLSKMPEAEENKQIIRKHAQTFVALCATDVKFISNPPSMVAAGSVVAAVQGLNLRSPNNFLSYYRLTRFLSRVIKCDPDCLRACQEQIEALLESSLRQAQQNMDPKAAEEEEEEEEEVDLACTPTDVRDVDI

Compound | Ki (CDK4/cyclin D1) [nM] | Emax (PEPCK gene expression; 0.1 μM + Dex/cAMP) [%] | Emax (PEPCK gene expression; 1 μM + Dex/cAMP) [%] | Emax (PEPCK gene expression; 10 μM + Dex/cAMP) [%]
CCNS(=O)(=O)c1cccc(Nc2nccc(-c3sc(=O)n(C)c3C)n2)c1 [Compound 62, 3-[4-(3,4-Dimethyl-2-oxo-2,3-dihydro-thiazol-5-yl)-pyrimidin-2-ylamino]-N-ethyl-benzenesulfonamide] | 330 |  |  | 
CC(=O)Nc1cc(Nc2nccc(-c3sc(=O)n(C)c3C)n2)cc(C(F)(F)F)c1 [Compound 64, N-{3-[4-(3,4-Dimethyl-2-oxo-2,3-dihydro-thiazol-5-yl)-pyrimidin-2-ylamino]-5-trifluoromethyl-phenyl}-acetamide] |  | 11.4 ± 3.2 |  | 
Cc1c(-c2ccnc(Nc3cc(Br)cc(C(F)(F)F)c3)n2)sc(=O)n1C [Compound 68, 5-[2-(3-Bromo-5-trifluoromethyl-phenylamino)-pyrimidin-4-yl]-3,4-dimethyl-3H-thiazol-2-one] |  |  |  | 60.7 ± 20

Further lines, with some results ahead:

Ki (CDK4/cyclin D1) [nM] | Compound | Emax (PEPCK gene expression; 0.1 μM + Dex/cAMP) [%] | Emax (PEPCK gene expression; 1 μM + Dex/cAMP) [%] | Emax (PEPCK gene expression; 10 μM + Dex/cAMP) [%]
1400 | COCCNS(=O)(=O)c1cccc(Nc2nccc(-c3sc(=O)n(C)c3C)n2)c1 [Compound 67, 3-[4-(3,4-Dimethyl-2-oxo-2,3-dihydro-thiazol-5-yl)-pyrimidin-2-ylamino]-N-(2-methoxy-ethyl)-benzenesulfonamide] |  | 101 ± 38.2 | 17.4 ± 0.97
150 | Cc1c(-c2ccnc(Nc3cccc(S(=O)(=O)NCCO)c3)n2)sc(=O)n1C [Compound 75, 3-[4-(3,4-Dimethyl-2-oxo-2,3-dihydro-thiazol-5-yl)-pyrimidin-2-ylamino]-N-(2-hydroxy-ethyl)-benzenesulfonamide] |  | 37.2 ± 0.37 | 17.1 ± 0.68
